Results reported in ChEMBL document CHEMBL1201862, “PubChem BioAssay data set” (2004).
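1) Cells in 96-well plates. 2) Compound, 48 h, 5 concentrations. 3) Linear interpolation between surrounding doses. 4) Unreached endpoint = highest concentration. GI50 marks 50% less growth.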 Calls of active or inactive are those of the source. Rule as the data show it: active = GI50 up to about 1.1 µM and inactive = higher.

Key:
Assay in all cases: NCI anticancer screen, dose series, 48 h
786-0 = tested on: 786-0
A498 = tested on: A498
A549 = tested on: A549
ACHN = tested on: ACHN
CCRF-CEM = tested on: CCRF-CEM
COLO 205 = tested on: COLO 205
DLD-1 = tested on: DLD-1
DMS-114 = tested on: DMS-114
DMS-273 = tested on: DMS-273
HCC 2998 = tested on: HCC 2998
HCT-116 = tested on: HCT-116
HCT-15 = tested on: HCT-15
HL-60 = tested on: HL-60
HOP-62 = tested on: HOP-62
HOP-92 = tested on: HOP-92
HT-29 = tested on: HT-29
IGROV-1 = tested on: IGROV-1
KM-20L2 = tested on: KM-20L2
KM12 = tested on: KM12
LOX IMVI = tested on: LOX IMVI
LXFL 529 = tested on: LXFL 529
M14 = tested on: M14
M19-MEL = tested on: M19-MEL
MOLT-4 = tested on: MOLT-4
Malme-3M = tested on: Malme-3M
NCI-H226 = tested on: NCI-H226
NCI-H23 = tested on: NCI-H23
NCI-H460 = tested on: NCI-H460
NCI-H522 = tested on: NCI-H522
OVCAR-4 = tested on: OVCAR-4
OVCAR-5 = tested on: OVCAR-5
OVCAR-8 = tested on: OVCAR-8
RPMI-8226 = tested on: RPMI-8226
SF-268 = tested on: SF-268
SF-295 = tested on: SF-295
SF-539 = tested on: SF-539
SK-MEL-28 = tested on: SK-MEL-28
SK-MEL-2 = tested on: SK-MEL-2
SK-MEL-5 = tested on: SK-MEL-5
SK-OV-3 = tested on: SK-OV-3
SN12C = tested on: SN12C
SNB-19 = tested on: SNB-19
SNB-75 = tested on: SNB-75
SNB-78 = tested on: SNB-78
SR = tested on: SR
SW-620 = tested on: SW-620
TK-10 = tested on: TK-10
U-251 = tested on: U-251
UACC-257 = tested on: UACC-257
UO-31 = tested on: UO-31
XF498 = tested on: XF498
CAKI-1 = tested on: CAKI-1
EKVX = tested on: EKVX
K562 = tested on: K562
RXF 393 = tested on: RXF 393
UACC-62 = tested on: UACC-62
OVCAR-3 = tested on: OVCAR-3

CCN(CC)C(=S)SCC(=O)Nc1nc2c(s1)CCCC2
GI50 (786-0): 60.8 µM (inactive) | GI50 (A498): > 100 µM (inactive) | GI50 (A549): > 100 µM (inactive) | GI50 (ACHN): > 100 µM (inactive) | GI50 (CCRF-CEM): 49.4 µM (inactive) | GI50 (COLO 205): 95.1 µM (inactive) | GI50 (DLD-1): 94 µM (inactive) | GI50 (DMS-114): 67.8 µM (inactive) | GI50 (DMS-273): 88.5 µM (inactive) | GI50 (HCC 2998): > 100 µM (inactive) | GI50 (HCT-116): 64.3 µM (inactive) | GI50 (HCT-15): 24.6 µM | GI50 (HL-60): 19.4 µM (inactive) | GI50 (HOP-62): > 100 µM (inactive) | GI50 (HOP-92): 68.2 µM (inactive) | GI50 (HT-29): 59.8 µM (inactive) | GI50 (IGROV-1): > 100 µM (inactive) | GI50 (KM-20L2): > 100 µM (inactive) | GI50 (KM12): > 100 µM (inactive) | GI50 (LOX IMVI): 57 µM (inactive) | GI50 (LXFL 529): 47.2 µM (inactive) | GI50 (M14): > 100 µM (inactive) | GI50 (M19-MEL): 52.7 µM (inactive) | GI50 (MOLT-4): 41.4 µM (inactive) | GI50 (Malme-3M): > 100 µM (inactive) | GI50 (NCI-H226): > 100 µM (inactive) | GI50 (NCI-H23): 74.1 µM (inactive) | GI50 (NCI-H460): 68.9 µM (inactive) | GI50 (NCI-H522): 28 µM (inactive) | GI50 (OVCAR-4): > 100 µM (inactive) | GI50 (OVCAR-5): > 100 µM (inactive) | GI50 (OVCAR-8): > 100 µM (inactive) | GI50 (RPMI-8226): > 100 µM (inactive) | GI50 (SF-268): > 100 µM (inactive) | GI50 (SF-295): 85.5 µM (inactive) | GI50 (SF-539): > 100 µM (inactive) | GI50 (SK-MEL-28): > 100 µM (inactive) | GI50 (SK-MEL-2): > 100 µM (inactive) | GI50 (SK-MEL-5): 26 µM (inactive) | GI50 (SK-OV-3): > 100 µM (inactive) | GI50 (SN12C): > 100 µM (inactive) | GI50 (SNB-19): > 100 µM (inactive) | GI50 (SNB-75): 72.6 µM (inactive) | GI50 (SNB-78): > 100 µM (inactive) | GI50 (SR): 27.6 µM (inactive) | GI50 (SW-620): > 100 µM (inactive) | GI50 (TK-10): > 100 µM (inactive) | GI50 (U-251): 70.1 µM (inactive) | GI50 (UACC-257): 36.9 µM (inactive) | GI50 (UO-31): 36.7 µM (inactive) | GI50 (XF498): 18.7 µM (inactive)

C[Si](C)(C)C(Sc1ccccc1)(Sc1ccccc1)Sc1ccccc1
GI50 (786-0): > 100 µM (inactive) | GI50 (A498): 76.9 µM (inactive) | GI50 (A549): 39.3 µM (inactive) | GI50 (ACHN): 43 µM (inactive) | GI50 (CAKI-1): > 100 µM (inactive) | GI50 (CCRF-CEM): 24 µM (inactive) | GI50 (COLO 205): 62.2 µM (inactive) | GI50 (DLD-1): 53.6 µM (inactive) | GI50 (DMS-114): 54.8 µM (inactive) | GI50 (DMS-273): > 100 µM (inactive) | GI50 (EKVX): 95.5 µM (inactive) | GI50 (HCC 2998): 94 µM (inactive) | GI50 (HCT-116): 60.3 µM (inactive) | GI50 (HCT-15): 50.5 µM | GI50 (HL-60): 35.2 µM (inactive) | GI50 (HOP-92): 17.1 µM (inactive) | GI50 (K562): > 100 µM (inactive) | GI50 (KM-20L2): 67.1 µM (inactive) | GI50 (KM12): 60.3 µM (inactive) | GI50 (LOX IMVI): 58.5 µM (inactive) | GI50 (LXFL 529): 81.5 µM (inactive) | GI50 (M19-MEL): 34.7 µM (inactive) | GI50 (MOLT-4): 4.28 µM (inactive) | GI50 (NCI-H23): 22.3 µM (inactive) | GI50 (NCI-H460): > 100 µM (inactive) | GI50 (OVCAR-4): > 100 µM (inactive) | GI50 (OVCAR-8): > 100 µM (inactive) | GI50 (RPMI-8226): 41.7 µM (inactive) | GI50 (RXF 393): 29.4 µM (inactive) | GI50 (SF-268): 76.6 µM (inactive) | GI50 (SF-295): 74.1 µM (inactive) | GI50 (SF-539): > 100 µM (inactive) | GI50 (SK-MEL-28): 46.7 µM (inactive) | GI50 (SK-MEL-2): 25.9 µM (inactive) | GI50 (SK-MEL-5): 67.9 µM (inactive) | GI50 (SK-OV-3): > 100 µM (inactive) | GI50 (SN12C): > 100 µM (inactive) | GI50 (SNB-19): > 100 µM (inactive) | GI50 (SNB-75): 40.5 µM (inactive) | GI50 (SNB-78): > 100 µM (inactive) | GI50 (SR): 35.7 µM (inactive) | GI50 (SW-620): 46.7 µM (inactive) | GI50 (TK-10): > 100 µM (inactive) | GI50 (U-251): 57.7 µM (inactive) | GI50 (UACC-257): 52.5 µM (inactive) | GI50 (UACC-62): 26.4 µM (inactive) | GI50 (UO-31): > 100 µM (inactive) | GI50 (XF498): 30.8 µM (inactive)

COc1ccc(C2Oc3cc(OC)c(OC)cc3C2CCl)cc1OC (stereo not given)
GI50 (786-0): 56.8 µM (inactive) | GI50 (A498): 73.5 µM (inactive) | GI50 (A549): > 100 µM (inactive) | GI50 (ACHN): > 100 µM (inactive) | GI50 (CAKI-1): > 100 µM (inactive) | GI50 (CCRF-CEM): > 100 µM (inactive) | GI50 (COLO 205): > 100 µM (inactive) | GI50 (DLD-1): 67.5 µM (inactive) | GI50 (DMS-114): > 100 µM (inactive) | GI50 (DMS-273): > 100 µM (inactive) | GI50 (EKVX): > 100 µM (inactive) | GI50 (HCC 2998): > 100 µM (inactive) | GI50 (HCT-116): > 100 µM (inactive) | GI50 (HCT-15): > 100 µM | GI50 (HL-60): > 100 µM (inactive) | GI50 (HOP-62): > 100 µM (inactive) | GI50 (HOP-92): 74.3 µM (inactive) | GI50 (K562): > 100 µM (inactive) | GI50 (KM-20L2): > 100 µM (inactive) | GI50 (KM12): > 100 µM (inactive) | GI50 (LOX IMVI): > 100 µM (inactive) | GI50 (LXFL 529): > 100 µM (inactive) | GI50 (M14): > 100 µM (inactive) | GI50 (M19-MEL): > 100 µM (inactive) | GI50 (MOLT-4): > 100 µM (inactive) | GI50 (Malme-3M): > 100 µM (inactive) | GI50 (NCI-H226): > 100 µM (inactive) | GI50 (NCI-H23): > 10 µM (inactive) | GI50 (NCI-H460): > 100 µM (inactive) | GI50 (NCI-H522): > 100 µM (inactive) | GI50 (OVCAR-3): > 100 µM (inactive) | GI50 (OVCAR-4): 41.4 µM (inactive) | GI50 (OVCAR-5): > 100 µM (inactive) | GI50 (OVCAR-8): > 100 µM (inactive) | GI50 (RPMI-8226): > 100 µM (inactive) | GI50 (SF-268): > 100 µM (inactive) | GI50 (SF-539): > 100 µM (inactive) | GI50 (SK-MEL-28): > 100 µM (inactive) | GI50 (SK-MEL-2): > 100 µM (inactive) | GI50 (SK-MEL-5): 34.1 µM (inactive) | GI50 (SN12C): > 100 µM (inactive) | GI50 (SNB-19): > 100 µM (inactive) | GI50 (SNB-75): 44.8 µM (inactive) | GI50 (SR): > 100 µM (inactive) | GI50 (SW-620): > 100 µM (inactive) | GI50 (TK-10): > 100 µM (inactive) | GI50 (U-251): > 100 µM (inactive) | GI50 (UACC-257): > 100 µM (inactive) | GI50 (UACC-62): 25.6 µM (inactive) | GI50 (UO-31): > 100 µM (inactive) | GI50 (XF498): > 100 µM (inactive)
